Data: PubChem BioAssay AID330 (DTP/NCI, 2004)
Where “and” joins values, the source holds several entries; their conditions need not be identical. Equal entries are not always repeated. Inconclusive results and toxic doses are left out.

Tested on: P388 leukemia ip, CD2F1 mice, survival T/C
Experiment: NCI In Vivo Anticancer Drug Screen. Data for tumor model P388 Leukemia (intraperitoneal) in CD2F1 (CDF1) mice
Conditions: endpoint: median survival time, higher = longer survival
Method in brief: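 Mice carrying the transplanted tumor received test compound or vehicle. Survival was recorded in each group, and the value is the treated-group measurement divided by that of the vehicle-treated control group.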

[1] = dose: 50.0 mg/kg/injection, schedule: Q01DX005 (ip), vehicle: Klucel (hydroxypropylcellulose) (HPC)
[2] = dose: 100.0 mg/kg/injection, schedule: Q01DX005 (ip), vehicle: Klucel (hydroxypropylcellulose) (HPC)
[3] = dose: 200.0 mg/kg/injection, schedule: Q01DX005 (ip), vehicle: Klucel (hydroxypropylcellulose) (HPC)
[4] = dose: 50.0 mg/kg/injection, schedule: Q01DX005 (ip), vehicle: saline with Tween-80
[5] = dose: 100.0 mg/kg/injection, schedule: Q01DX005 (ip), vehicle: saline with Tween-80

CCCCCCCCC1OCN2CCCCC12 (configuration not stated)
T/C (dose: 50.0 mg/kg/injection, schedule: Q01DX005 (ip), vehicle: saline): 108 % of control | T/C (dose: 100.0 mg/kg/injection, schedule: Q01DX005 (ip), vehicle: saline): 102 % of control | T/C (dose: 200.0 mg/kg/injection, schedule: Q01DX005 (ip), vehicle: saline): 100 % of control

C=CCC1=C(CC)C(=O)c2ccccc2C1=O
T/C [1]: 100 % of control | T/C [2]: 100 % of control | T/C [3]: 111 % of control

O=NN(CCCl)C(=O)Nc1cc(=O)[nH]c(SCc2ccccc2)n1
T/C (dose: 10.06 mg/kg/injection, schedule: Q04DX002 (ip), vehicle: Klucel (hydroxypropylcellulose) (HPC)): 151 % of control | T/C (dose: 40.25 mg/kg/injection, schedule: Q04DX002 (ip), vehicle: Klucel (hydroxypropylcellulose) (HPC)): 158 % of control | T/C (dose: 80.5 mg/kg/injection, schedule: Q04DX002 (ip), vehicle: Klucel (hydroxypropylcellulose) (HPC)): 178 % of control | T/C (dose: 161.0 mg/kg/injection, schedule: Q04DX002 (ip), vehicle: Klucel (hydroxypropylcellulose) (HPC)): 150 % of control and 158 % of control | T/C (dose: 322.0 mg/kg/injection, schedule: Q04DX002 (ip), vehicle: Klucel (hydroxypropylcellulose) (HPC)): 101 % of control

CCCCCCCCCCCC1=c2o[nH]c2=C(c2ccccn2)C(=O)C1=O
T/C [4]: 94 % of control | T/C [5]: 86 % of control

Oc1cccc([C@@]23CCCC[C@H]2CN(CC2CC2)CC3)c1
T/C [4]: 90 % of control | T/C [5]: 111 % of control

CCCCCCC(=O)CC(SCC(NC(C)=O)C(=O)O)c1ccccc1Cl (configuration not stated)
T/C (dose: 60.0 mg/kg/injection, schedule: Q01DX005 (ip), vehicle: saline): 101 % of control | T/C (dose: 120.0 mg/kg/injection, schedule: Q01DX005 (ip), vehicle: saline): 93 % of control

CCOc1cc(=O)cc2n(-c3cc(OCC)c(OC)c(OCC)c3)c3ccccc3nc1-2
T/C (dose: 50.0 mg/kg/injection, schedule: Q01DX009 (ip), vehicle: suspension in saline): 101 % of control | T/C (dose: 100.0 mg/kg/injection, schedule: Q01DX009 (ip), vehicle: suspension in saline): 101 % of control | T/C (dose: 200.0 mg/kg/injection, schedule: Q01DX009 (ip), vehicle: suspension in saline): 90 % of control

COC(=O)C1=NOC(COc2ccc([N+](=O)[O-])cc2)C1 (configuration not stated)
T/C (dose: 60.0 mg/kg/injection, schedule: Q01DX005 (ip), vehicle: saline with Tween-80): 100 % of control | T/C (dose: 120.0 mg/kg/injection, schedule: Q01DX005 (ip), vehicle: saline with Tween-80): 93 % of control | T/C (dose: 240.0 mg/kg/injection, schedule: Q01DX005 (ip), vehicle: saline with Tween-80): 86 % of control

NS(=O)(=O)c1cc([N+](=O)[O-])ccc1C(=O)OC1CCCCC1
T/C [1]: 104 % of control | T/C [2]: 113 % of control | T/C [3]: 92 % of control

O=S(=O)(Oc1cccc(C(F)(F)F)c1)c1cccc(C(F)(F)F)c1
T/C (dose: 6.25 mg/kg/injection, schedule: Q01DX009 (ip), vehicle: saline with Tween-80): 100 % of control | T/C (dose: 6.25 mg/kg/injection, schedule: Q04DX003 (ip), vehicle: saline with Tween-80): 100 % of control | T/C (dose: 12.5 mg/kg/injection, schedule: Q01DX009 (ip), vehicle: saline with Tween-80): 91 % of control | T/C (dose: 12.5 mg/kg/injection, schedule: Q04DX003 (ip), vehicle: saline with Tween-80): 100 % of control | T/C (dose: 25.0 mg/kg/injection, schedule: Q01DX009 (ip), vehicle: saline with Tween-80): 91 % of control | T/C (dose: 25.0 mg/kg/injection, schedule: Q04DX003 (ip), vehicle: saline with Tween-80): 100 % of control

O=C(O)c1ncn2c(=O)n(CCCl)nnc12
T/C (dose: 60.0 mg/kg/injection, schedule: Q01DX005 (ip), vehicle: Klucel (hydroxypropylcellulose) (HPC)): 118 % of control

O=C(N/N=C/c1ccccc1O)c1cccc([N+](=O)[O-])c1
T/C (dose: 100.0 mg/kg/injection, schedule: Q01DX009 (ip), vehicle: saline): 99 % of control | T/C (dose: 200.0 mg/kg/injection, schedule: Q01DX009 (ip), vehicle: saline): 100 % of control | T/C (dose: 400.0 mg/kg/injection, schedule: Q01DX009 (ip), vehicle: saline): 91 % of control

Cc1cs/c(=N/N=C2C=CC(=O)C=C2)n1O
T/C (dose: 50.0 mg/kg/injection, schedule: Q01DX009 (ip), vehicle: Klucel (hydroxypropylcellulose) (HPC)): 102 % of control | T/C (dose: 100.0 mg/kg/injection, schedule: Q01DX009 (ip), vehicle: Klucel (hydroxypropylcellulose) (HPC)): 107 % of control | T/C (dose: 200.0 mg/kg/injection, schedule: Q01DX009 (ip), vehicle: Klucel (hydroxypropylcellulose) (HPC)): 101 % of control

COc1ccc(/C=N/Nc2nnc3c4ccccc4c4ncccc4c3n2)cc1
T/C (dose: 100.0 mg/kg/injection, schedule: Q01DX001 (ip), vehicle: saline with Tween-80): 88 % of control | T/C (dose: 200.0 mg/kg/injection, schedule: Q01DX001 (ip), vehicle: saline with Tween-80): 95 % of control | T/C (dose: 400.0 mg/kg/injection, schedule: Q01DX001 (ip), vehicle: saline with Tween-80): 106 % of control
